From PMC8745345, “Hydroxy Pentacyclic Triterpene Acid, Kaempferol, Inhibits the Human 5-Hydroxytryptamine Type 3A Receptor Activity” (International Journal of Molecular Sciences, 2022) come the findings set out here.

One may read the IC50 as the midpoint of a concentration-inhibition curve. High values mean lower potency, low ones higher potency.

The structures appear in SMILES notation. Numbering of substitutions follows the chain as printed.

Common to all, as to assay type: cell-based
Holding throughout (details): −80 mV

Experiment [1] concerns the target T1, human 5-HT3A receptor I144A mutant (Homo sapiens, UniProt P46098).
T1 sequence (P46098 24-478): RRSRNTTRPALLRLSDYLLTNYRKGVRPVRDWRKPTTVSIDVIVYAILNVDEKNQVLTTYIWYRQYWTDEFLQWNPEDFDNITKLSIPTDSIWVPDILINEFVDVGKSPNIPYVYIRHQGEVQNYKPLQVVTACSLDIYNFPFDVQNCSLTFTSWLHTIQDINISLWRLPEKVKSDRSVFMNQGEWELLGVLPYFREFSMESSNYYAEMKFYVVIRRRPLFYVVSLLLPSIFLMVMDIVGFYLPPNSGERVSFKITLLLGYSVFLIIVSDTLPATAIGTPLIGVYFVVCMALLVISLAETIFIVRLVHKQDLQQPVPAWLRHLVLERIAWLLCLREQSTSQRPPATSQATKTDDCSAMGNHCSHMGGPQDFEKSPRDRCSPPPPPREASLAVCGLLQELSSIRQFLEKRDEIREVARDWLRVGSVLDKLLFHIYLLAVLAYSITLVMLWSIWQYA
Kind of experiment: Two-electrode voltage clamp, I5-HT inhibition, I144A mutant. How it is done: (§1) Human 5-HT3A receptor cDNA was linearized using restriction enzyme XhoI. In vitro transcription was performed using an mMESSAGE mMACHINE T7 Transcription Kit (Thermo Fisher Scientific, Waltham, MA, USA). The final mRNA product was dissolved in 1X Diethyl Pyrocarbonate (RNase-free water) at a final concentration of 1 μg/μL and kept in a deep-freezer at −80 °C until used.
(§2) Xenopus oocytes were used in this study as cells for expression of human 5-HT3A receptor. All female frogs used in this experiment were obtained from the Korean Xenopus Resource Center for Research (KXRCR000001). Xenopus management followed the guideline of Chonnam National University institution guidelines (CNU IACUC-YB-2016-07, July 2016). Xenopus oocytes were extracted during ice incubation state and isolated as single oocytes using collagenase II (2 mg/mL) in OR2 buffer (82.5 mM NaCl, 2 mM KCl, 1 mM MgCl2, 5 mM HEPES, pH 7.4). […]
(§3) The voltage relationship experiment for confirming the relationship between induce-inward current and voltage, the voltage was varied from −80 mV to +60 mV using a ramp protocol. […] All recording data were analyzed using Clampfit 9.0 (Molecular Devices, San Jose, CA, USA). […]
(§4) All presented experiments were performed at least three times for scientific verification. […] Induced-inward current data were analyzed with SigmaPlot 10.0 software (Systat Software, Inc., San Jose, CA, USA). […]
(In two-electrode clamp one electrode senses voltage and the other passes current.)

For experiment [2], the target named is T2, human 5-HT3A receptor D177A mutant (Homo sapiens, UniProt P46098, D199A).
T2 sequence (P46098 24-478 D199A): T1 sequence (P46098 24-478) with D176A
Nature of the experiment: Two-electrode voltage clamp, I5-HT inhibition, D177A mutant.
Experimental: Xenopus oocytes were used in this study as cells for expression of human 5-HT3A receptor. All female frogs used in this experiment were obtained from the Korean Xenopus Resource Center for Research (KXRCR000001). […] Xenopus oocytes were extracted during ice incubation state and isolated as single oocytes using collagenase II (2 mg/mL) in OR2 buffer (82.5 mM NaCl, 2 mM KCl, 1 mM MgCl2, 5 mM HEPES, pH 7.4). Isolated oocytes were incubated with ND96 incubation buffer (96 mM NaCl, 2 mM KCl, 1 mM MgCl2, 1.8 mM CaCl2, 5 mM HEPES, 2.5 mM sodium pyruvate, and 50 mg/mL gentamycin, pH 7.4) at 18 °C until the experiment was performed. Human 5-HT3A receptor mRNA was injected into oocytes using a nanoinjector (Drummond Scientific, Broomall, PA, USA) with a mineral-filled 10 μL microdispenser (VWR, Piscataway, NJ, USA).
To confirm the KAE activity on the human 5-HT3A receptor, a two-electrode voltage clamp (OC-725C; Warner Instruments, Hamden, CT, USA) with a Digitata 1550A was used. For the experiment, induced-inward current was converted to digital data with pClamp 10 software (Axon Instruments, Union City, CA, USA). All experiments were performed at room temperature using an oocyte clamp equipped with Digidata. The membrane holding potential was −80 mV.

Experiment [3] addresses T3, human 5-HT3A receptor I210A mutant (Homo sapiens, UniProt P46098).
T3 sequence (P46098 24-478): T1 sequence (P46098 24-478)
Kind of experiment: Two-electrode voltage clamp, I5-HT inhibition, I210A mutant. The method, then: as §1, §2, §3, §4

Take `O=c1c(O)c(-c2ccc(O)cc2)oc2cc(O)cc(O)c12` [KAE, kaempferol]: the half-inhibitory concentration (IC50) was determined as 34.9 ± 11.2 µM in experiment [1], 13.9 ± 4.2 µM in experiment [2] (Table 1) and 35.4 ± 9.7 µM in experiment [3]. The “n (Hill coefficient)” value in experiment [1] came to 1.5 ± 0.4; in experiment [2], 1.3 ± 0.2; in experiment [3], 1.8 ± 0.5. Besides, the Vmax in experiment [2] (Table 1) was 23.3 ± 13.4%.
